Measured values as given in US20080131498A1, “PHARMACEUTICAL COMPOSITION, A METHOD OF PREPARING IT AND A METHOD OF TREATMENT BY USE THEREOF” (BUSULIPO AB, priority 1998, published 2008).
“And” between values parts separate entries of the source, which are not always exact repeats. Equal entries are not always repeated. “Also recorded” adds a separate entry of the source. Where two headings read alike, the source gives them in different places.

Key:
[1] = tested on: CFU-GM from normal CD34+ hematopoietic progenitor cells; assay: Clonogenic assay of CD34+ cells, CFU-GM (Example 11); format: cell-based, human; conditions: for effect alone on colony formation of CFU-GM or erythroid colonies / effect on busulphan-induced inhibition of colony formation of CFU-GM or erythroid colonies: CD34+ cells; for effect on busulphan-induced inhibition of colony formation of CFU-GM or erythroid colonies: preincubation then busulphan 4.5 or 10 μg/ml for 4 hours
Procedure: (§1) Ten healthy volunteers were recruited after a medical interview. The study followed the guidelines of the local authorities and was approved by the local ethical committee. […] CD34+ cells were separated on a MACS system by positive selection using CD34+ Separation Kit according to the manufacturer's instructions. Cells were incubated in RPMI-1640 medium supplemented with 10% heat inactivated fetal bovine serum at 37° C. in a humidified 5% CO2 atmosphere. Cells used for pharmacodynamic study were incubated in busulphan of final concentrations of 1, 2.5, 5, 10, 20, 40 or 60 μg/ml for 2, 4 or 8 hours. Cells used for the GSH modulation part were treated with N-acetyl-L-cysteine (NAC) (1 mM) or L-buthionine-[S,R]-sulfoximine (BSO) (50 μM) for 16 to 18 hours, followed by busulphan in final concentrations of 4.5 or 10 μg/ml for 4 hours. After incubation, cells were washed and plated for clonogenic assay.
(§2) CD34+ cells were treated with NAC, BSO, DMSO or busulphan alone or in combinations, washed and 2000 cells were plated in 1.1 ml of MethoCult™ GF H4434 in 35 mm Petri dishes in triplicates. Colonies were scored on day 14 using an inverted microscope. Murine bone marrow was harvested on day 1, 3, 6, 9 or 12 after the last dose of the treatment. Control group and each treatment group consisted of a minimum of three animals at each time point. Mice were sacrificed under general anaesthesia. Both femurs were removed and bone marrow was flushed out under sterile conditions. Cells were counted in Türk solution and nucleated cells (0.5×10^5) were plated in 1.1 ml of MethoCult™ GF M3534 in 35 mm Petri dishes in triplicates. The plates were placed in incubator (37° C., 5% CO2 and 100% humidity). CFU-GM, equal to or more than 50 cells, were counted on the day 7 using an inverted microscope.

[2] = tested on: GSH intracellular content of CD34+ cells; assay: GSH assay in CD34+ cells after NAC or BSO; format: cell-based, human; conditions: preincubation 16 to 18 hours, NAC 1 mM or BSO 50 μM
Procedure: as §1, with “After incubation, cells were washed and plated for clonogenic assay.” left out
(§3) Intracellular concentrations of GSH were determined using the enzymatic assay according to Tietze (Tietze, F. Enzymic method for quantitative determination of nanogram amounts of total and oxidized glutathione: applications to mammalian blood and other tissues. Anal Biochem, 27: 502-522., 1969). Total cellular protein was assessed according to Lowry after dissolving the precipitate in 1M NaOH (Lowry, O. H., Rosebrough, N. J., Farr, A. L., and Randall, R. J. Protein measurement with the folin phenol reagent. J Biol Chem, 193: 265-275., 1951)

[3] = tested on: GSH intracellular level of P39 cells; assay: GSH assay in P39 cells after NAC or BSO; format: cell-based, human
Procedure: (§4) The P39 cell line was kindly provided by Prof Y. Yoshida, Center for South East Asian Studies, Kyoto University, Kyoto, Japan. Cells were cultured in RPMI-1640 medium supplemented with 10% heat inactivated fetal bovine serum (FBS), penicillin (25 IU/ml) and streptomycin (25 μg/ml) at 37° C. in a humidified 5% CO2 atmosphere. Exponentially growing cells were used in all experiments. Cells were incubated with N-acetyl-L-cysteine (1 mM) or L-buthionine-[S,R]-sulfoximine (50 μM) for 16 to 18 hours and then with busulphan in final concentrations of 10, 20 or 40 μg/ml for 4 hours. After incubation, cells were washed and re-cultured in busulphan-free medium for 72 hours.
as §3

myeloid P39 cell line = assay: Proliferation, clonogenicity and apoptosis in P39 cells; format: cell-based, human; conditions: for effect on proliferation of busulphan treated P39 cells ([^3H]thymidine incorporation) / effect on the effect of busulphan on clonogenic capacity of P39 cells / effect on levels of apoptosis induced by busulphan in P39 cells: pretreatment; for effect on the effect of busulphan on clonogenic capacity of P39 cells: busulphan 10, 20 or 40 μg/ml 4 hours; for effect on levels of apoptosis induced by busulphan in P39 cells: data not shown
Procedure: as §4
Proliferation was assessed using the [^3H]thymidine incorporation assay. Clonogenic capacity was determined in 0.9% methylcellulose and apoptosis with morphology in May-Grünwald-Giemsa staining as described in (Hassan, Z., Hassan, M., and Hellstrom-Lindberg, E. The pharmacodynamic effect of busulfan in the P39 myeloid cell line in vitro. Leukemia, 15: 1240-1247, 2001).

CFU-GM = assay: Busulphan-induced myelosuppression in mice with GSH modulators, CFU-GM assay; format: in vivo, Balb/c mice; conditions: for effect of combination on the myelosuppressive effect of busulphan: NAC 1.38 mmol/kg orally or BSO 0.93 mmol/kg ip before busulphan
Procedure: Balb/c mice were purchased from B&K Universal Limited, Sweden. Female mice were 6 to 12 weeks old with a weight ranging from 20 to 24 g. Local animal ethical committee approved animals housing conditions and experimental design. Animals were fed with standard pelleted food and water ad libitum. […] Treatment consisted of N-acetyl-L-cysteine (1.38±0.07 mmol/kg) orally or L-buthionine-[S,R]-sulfoximine (0.93±0.03 mmol/kg) intraperitoneally followed by liposomal busulphan (37±1.4 mg/kg) intraperitoneally. Animals were sacrificed at day 1, 3, 6, 9 or 12 after the last dose of treatment.
Liposomal busulphan was used in the in vivo study and prepared as described in example 1. Liposomal busulphan was prepared freshly before each experiment and stored in refrigerator until use.
as §2

[4] = Busulphan AUC before and after NAC in patients (Example 12); format: in vivo, human patients; conditions: for AUC: plasma
Procedure: Busulphan was given twice daily.
Busulphan was determined using gas chromatography with electron capture detector. Internal standard (1,5-bis(methanesulphonyloxy) pentane) was added to 0.5 ml plasma. Busulphan and internal standard were converted to 1,4-diiodobutane and 1,5-diiodopentane, respectively.

[5] = NAC therapy during conditioning prior to allogeneic SCT: liver function, VOD, course of transplantation (Example 12)
Description: Ten patients, who underwent allogeneic stem cell transplantation (SCT) were included in the study. Six patients were transplanted with stem cells from matched unrelated donors, three with stem cells from HLA (Human Leukocyte Antigen) identical sibling donors and one with cord blood. The patients were included on the basis of high risk for hepatic toxicity. […] All patients had been tested negative for viral hepatitis B and C during pre-transplantation evaluation.
The initial busulphan dose given to these patients was 4 mg/kg/day. Busulphan was given twice daily. In cases of high busulphan serum concentrations the dose was reduced during conditioning as described below. […] Nine patients were given NAC during conditioning with busulphan. Treatment with NAC was given once daily as a three-hour infusion, 100 mg per kg body weight starting six hours after the previous busulphan dose and ending three hours before the following dose. The number of NAC doses given during and after busulphan treatment among the patients is described in Table 9. […] When restarted, NAC was administered not earlier than twelve hours after the end of cyclophosphamide infusion. The treatment was continued until elevated liver transaminases were normalized or, if normal transaminases at initiation of therapy, until conditioning was completed.
Tissue typing, conditioning, GVHD prophylaxis and infectious prophylaxis were performed as generally known to the skilled person. In short, the patients were treated in reversed isolation, immunosuppression consisted of four doses of methotrexate combined with cyclosporine and antithymocyte globuline, (Thymoglobulin, Sangstadt, Lyon, France), was given to recipients of unrelated stem cells.

[6] = tested on: Erythroid colonies from normal CD34+ hematopoietic progenitor cells; assay: Clonogenic assay of CD34+ cells, erythroid colonies (Example 11); format: cell-based, human; conditions: bone marrow donors BM 1-5 and Mean
Procedure: as §1
CD34+ cells were treated with NAC, BSO, DMSO or busulphan alone or in combinations, washed and 2000 cells were plated in 1.1 ml of MethoCult™ GF H4434 in 35 mm Petri dishes in triplicates. Colonies were scored on day 14 using an inverted microscope. […] Cells were counted in Türk solution and nucleated cells (0.5×10^5) were plated in 1.1 ml of MethoCult™ GF M3534 in 35 mm Petri dishes in triplicates. […] CFU-GM, equal to or more than 50 cells, were counted on the day 7 using an inverted microscope.

[7] = Half-life of busulphan in RPMI-1640 medium (in vitro pharmacokinetics); format: physicochemical; conditions: 37° C.
[8] = 25° C.; cited from earlier work
[9] = tested on: GSH in murine hepatocytes; conditions: cited from earlier work
[10] = After NAC therapy, one line per patient
[11] = After conditioning, one line per patient

CCCCS(=N)(=O)CC[C@H](N)C(=O)O (stereo partly drawn) [BSO, L-buthionine-[S,R]-sulfoximine]
effect alone on colony formation of CFU-GM or erythroid colonies [1]: did not influence
effect on busulphan-induced inhibition of colony formation of CFU-GM or erythroid colonies [1]: Neither did preincubation of CD34+ cells with BSO change; also recorded: no additive effect
GSH intracellular content compared to CD34+ cells incubated in medium [2]: 50±9% and 50%
decrease of GSH compared to cells cultured in medium ([3]; BSO 50 μM 16 to 18 hours): 80%
decrease of clonogenic capacity of P39 cells (myeloid P39 cell line; alone, immediately at the end of incubation, full recovery after 24 hours): 50%
combined effect with busulphan on P39 cells (myeloid P39 cell line; busulphan 10 μg/ml, immediately after the end of incubation): Additive effect
effect on proliferation of busulphan treated P39 cells ([^3H]thymidine incorporation) (myeloid P39 cell line): did not influence the proliferation
effect on the effect of busulphan on clonogenic capacity of P39 cells (myeloid P39 cell line): neither NAC nor BSO influenced
effect on levels of apoptosis induced by busulphan in P39 cells (myeloid P39 cell line): did not change the levels of apoptosis
effect alone on CFU-GM formation compared to the control group (CFU-GM): Neither NAC nor BSO influenced
effect of combination on the myelosuppressive effect of busulphan (CFU-GM): did not change the level of myelosuppression

CC(=O)N[C@@H](CS)C(=O)O [NAC, N-acetyl-L-cysteine]
effect alone on colony formation of CFU-GM or erythroid colonies [1]: did not influence
effect on busulphan-induced inhibition of colony formation of CFU-GM or erythroid colonies [1]: did not affect
GSH intracellular content compared to CD34+ cells incubated in medium [2]: 150±30%
increase of GSH intracellular level compared to cells cultured in medium ([3]; NAC 1 mM 16 to 18 hours): 10%
effect on proliferation of busulphan treated P39 cells ([^3H]thymidine incorporation) (myeloid P39 cell line): did not influence the proliferation
effect on the effect of busulphan on clonogenic capacity of P39 cells (myeloid P39 cell line): neither NAC nor BSO influenced
effect on levels of apoptosis induced by busulphan in P39 cells (myeloid P39 cell line): did not change the levels of apoptosis
effect alone on CFU-GM formation compared to the control group (CFU-GM): Neither NAC nor BSO influenced
effect of combination on the myelosuppressive effect of busulphan (CFU-GM): did not significantly influence
effect on busulphan serum concentrations ([4]; human, in vivo): not affected
ALT [5, 10]: 0.77 ukat/L and 1.19 ukat/L and 0.61 ukat/L and 0.52 ukat/L
AST [5, 10]: 0.29 ukat/L and 0.33 ukat/L and 0.42 ukat/L and 0.49 ukat/L
Bilirubin [5, 10]: 9 µmol/L and 19 µmol/L and 7 µmol/L and 6 µmol/L
ALT [5, 11]: 4.11 ukat/L and 3.45 ukat/L and 0.78 ukat/L and 2.24 ukat/L
AST [5, 11]: 1.76 ukat/L and 1.50 ukat/L and 0.40 ukat/L and 0.82 ukat/L
Bilirubin [5, 11]: 4 µmol/L and 12 µmol/L and 11 µmol/L and 6 µmol/L
ALT ([5]; Before NAC therapy, one line per patient, normal range <0.8): 1.51 ukat/L and 2.25 ukat/L and 0.59 ukat/L and 8.10 ukat/L
AST ([5]; Before NAC therapy, one line per patient, normal range <0.80): 0.85 ukat/L and 0.96 ukat/L and 0.38 ukat/L and 11.2 ukat/L
Bilirubin ([5]; Before NAC therapy, one line per patient, normal range <26): 4 µmol/L and 5 µmol/L and 8 µmol/L and 3 µmol/L
Engraftment WBC day, ≧0.5 × 10^9/L ([5]; Day of SCT = day 0, one line per patient): 13 day (2×) and 12 day (3×) and 15 day and 24 day and 10 day and 14 day and 16 day
First day of WBC ≦0.5 × 10^9/L ([5]; Day of SCT = day 0, one line per patient, NAC during conditioning): 1 day and −1 day (2×) and −3 day and 0 day and 4 day and 5 day and 6 day and 2 day and −2 day
liver transferases after treatment in patients elevated at initiation ([5]; in vivo): less elevated test results after treatment
side effects related to the NAC infusions ([5]; in vivo): no side effects related to the NAC infusions were observed
Chimerism at 1 month post SCT ([5]; one line per patient): 100% donor
Patient outcome ([5]; one line per patient): Died day
Recurrence of the malignancy ([5]; one line per patient): No (9×) and 15 mo after
neutropenia ([5]; ten patients): Neutropenia developed in all patients
VOD or fatal liver toxicity ([5]; ten patients at high risk of VOD): None of the patients developed VOD or fatal liver toxicity
donor origin of hematopoietic cells (CD3+, Cd19+, CD45+) in peripheral blood ([5]; three months after SCT, five patients): 100%

CS(=O)(=O)OCCCCOS(C)(=O)=O [busulphan, 1,4-bis-(methanesulphonyloxy)butan]
I-AUC100 (AUC inhibiting colony formation by 100%) ([1]; CFU-GM, bone marrow donors BM 1-5 and Mean): 69.33 µg·h/mL and 56.01 µg·h/mL and 74.14 µg·h/mL and 69.46 µg·h/mL and 74.38 µg·h/mL
I-AUC50 (AUC inhibiting colony formation by 50%) [6]: 31.54 µg·h/mL and 18.13 µg·h/mL and 24.68 µg·h/mL and 30.12 µg·h/mL and 26.96 µg·h/mL
I-AUC50 (AUC inhibiting colony formation by 50%) ([6]; mean): 26.29 µg·h/mL
myelosuppression (CFU-GM colony-formation assay) (CFU-GM; liposomal busulphan 37±1.4 mg/kg ip once a day for 4 days): stable myelosuppression on days 3 through 12
Busulphan AUC corrected for 2 mg/kg ([4]; After NAC, one line per patient): 10385 ng·h/mL and 12350 ng·h/mL and 15230 ng·h/mL and 10043 ng·h/mL and 19445 ng·h/mL and 12828 ng·h/mL
AUC ([4]; human, 2 mg/kg, Busulphan AUC corrected for 2 mg/kg, After NAC, one line per patient): 14800 ng·h/mL
AUC ([4]; human, oral, 4 mg/kg/day, patients no 2, 4 and 8, in this order, before NAC, read-out: AUC after the first dose of busulphan): 20500 ng·h/mL
AUC ([4]; human, oral, patients no 2, 4 and 8, in this order, doses reduced by 35, 15 and 30%, read-out: mean values of the AUC's during doses 4-8): 11400 ng·h/mL
AUC after the first dose of busulphan ([4]; patients no 2, 4 and 8, in this order, before NAC): 15527 ng·h/mL and 16122 ng·h/mL
mean values of the AUC's during doses 4-8 ([4]; patients no 2, 4 and 8, in this order, doses reduced by 35, 15 and 30%): 10551 ng·h/mL and 12122 ng·h/mL
half-life [7]: 16 h
k (C=C0.e^−kt) [7]: 0.043
water solubility [8]: less than 1 microgram/ml
GSH depletion in murine hepatocytes ([9]; in vitro): 50%
GSH depletion in murine hepatocytes ([9]; in vivo): 60%
